Molecular target: GST-RIPK1 (recombinant GST-RIPK1 kinase domain (residues 1-327)) (Homo sapiens (Human), UniProt Q13546)
Assay: RIPK1-ADP-Glo Enzymatic Assay
Assay type: biochemical
Conditions: 25 nM GST-RIPK1, 300 μM ATP, 3 μM dephosphorylated-MBP, 30 min pre-incubation, 150 min reaction
Summary of the method: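 GST-RIPK1 kinase domain (1-327, Sf21-expressed), 25 nM final, pre-incubated 30 min with compound (1% DMSO), then reacted 150 min with 300 μM ATP and 3 μM dephosphorylated MBP in HEPES pH 7.3/MgCl2 buffer. ADP measured by ADP-Glo luminescence; EC50 from 10-point 1:3 titrations (top 100000 nM), four-parameter fit.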

Sequence of GST-RIPK1 (recombinant GST-RIPK1 kinase domain (residues 1-327)) (Q13546 1-327): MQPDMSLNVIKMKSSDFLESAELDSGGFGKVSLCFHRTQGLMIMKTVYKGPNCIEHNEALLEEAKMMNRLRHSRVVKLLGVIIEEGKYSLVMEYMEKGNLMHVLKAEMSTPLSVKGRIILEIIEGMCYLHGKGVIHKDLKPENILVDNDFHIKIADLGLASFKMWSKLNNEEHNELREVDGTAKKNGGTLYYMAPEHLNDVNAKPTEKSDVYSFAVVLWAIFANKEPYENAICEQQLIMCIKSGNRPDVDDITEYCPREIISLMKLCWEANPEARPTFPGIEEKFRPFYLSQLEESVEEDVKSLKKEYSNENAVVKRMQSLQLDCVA

EC50 [µM]	Compound
0.0629	O=c1n(C23CC(F)(C2)C3)nc2n1[C@H](c1ccc(C(F)F)cc1)CC2 [Compound 4-10, (S)-5-(4-(difluoromethyl)phenyl)-2-(3-fluorobicyclo[1.1.1]pentan-1-yl)-2,5,6,7-tetrahydro-3H-pyrrolo[2,1-c][1,2,4]triazol-3-one]
0.0538	O=c1n(C23CC(F)(C2)C3)nc2n1C(c1cccc(F)c1F)CC2 (racemic) [Compound 4-5, (±)-5-(2,3-difluorophenyl)-2-(3-fluorobicyclo[1.1.1]pentan-1-yl)-2,5,6,7-tetrahydro-3H-pyrrolo[2,1-c][1,2,4]triazol-3-one]

Second part, the compound before the results:

Compound	EC50 [µM]
CC(F)(F)C12CC(n3nc4n(c3=O)[C@H](c3cccc(F)c3)CC4)(C1)C2 [Compound 1-34, (5S)-2-[3-(1,1-difluoroethyl)bicyclo[1.1.1]pentan-1-yl]-5-(3-fluorophenyl)-2,5,6,7-tetrahydro-3H-pyrrolo[2,1-c][1,2,4]triazol-3-one]	0.0269
N#CC12CC(n3nc4n(c3=O)C(C3CCCCC3)CC4)(C1)C2 (single isomer, unassigned) [Compound 1-55, 3-(5-(S or R)-cyclohexyl-3-oxo-6,7-dihydro-3H-pyrrolo[2,1-c][1,2,4]triazol-2(5H)-yl)bicyclo[1.1.1]pentane-1-carbonitrile]	0.103
COC(=O)C12CC(n3nc4n(c3=O)[C@H](c3cc(F)cc(F)c3)CC4)(C1)C2 [Compound 1-18, methyl 3-[(5S)-5-(3,5-difluorophenyl)-3-oxo-6,7-dihydro-3H-pyrrolo[2,1-c][1,2,4]triazol-2(5H)-yl]bicyclo[1.1.1]pentane-1-carboxylate]	0.114
N#CC12CC(n3nc4n(c3=O)[C@H](c3ccc(Cl)cc3)CC4)(C1)C2 [Compound 1-46, (S)-3-(5-(4-chlorophenyl)-3-oxo-6,7-dihydro-3H-pyrrolo[2,1-c][1,2,4]triazol-2(5H)-yl)bicyclo[1.1.1]pentane-1-carbonitrile]	0.044
O=c1n(C23CC(Cl)(C2)C3)nc2n1[C@H](c1cnccn1)CC2 [Compound 1-59, (S)-2-(3-chlorobicyclo[1.1.1]pentan-1-yl)-5-(pyrazin-2-yl)-2,5,6,7-tetrahydro-3H-pyrrolo[2,1-c][1,2,4]triazol-3-one]	0.0539
O=c1n(C23CC(C(F)F)(C2)C3)nc2n1[C@H](c1cc(F)cc(F)c1)CC2 [Compound 1-28, (5S)-2-[3-(difluoromethyl)bicyclo[1.1.1]pentan-1-yl]-5-(3,5-difluorophenyl)-2,5,6,7-tetrahydro-3H-pyrrolo[2,1-c][1,2,4]triazol-3-one]	0.0259

Source: US20240025912A1 (Merck Sharp & Dohme LLC, priority 2022, published 2024)
